Consider 21 compounds from paper PMC7363885, “Fluorescent artificial receptor-based membrane assay (FARMA) for spatiotemporally resolved monitoring of biomembrane permeability” (Communications Biology, 2020).

Like-named read-outs stand apart in the source and are kept apart here. Marks after values point to notes of the source that are not given here. Bounds are passed on as bounds.

How the values of data set [1] were obtained: Supplementary Table 3 | Qualitative assessment of membrane permeability for more tha n 90 different organic compoundsa investigated by the FARMA-assay with receptors FAR-1, FAR-2, and FAR-3, and, for comparison, investigations by the dye displacement signal generation strategy with the sensing ensembles (CB8•MV•2,6-ANS, CB8•MV•5HO-Trp, CB7•BE, and CB7•PAL). […]
a See also Fig. 2 in main text for chemical structures. b λexc = 400 nm, λobs = 450 nm. c λexc = 310 nm, λobs = […]
ethanol (10 mM stock). m Emerging excimer band at λobs = 500 nm was monitored. n Control experiment in the absence of host (CB8) was also carried out. o λobs = 500 nm was chosen to by-pass the self-fluorescence

The test system of another data set is FAR-2. The data set can be described thus: Fluorescence titration, FAR•analyte complex formation in homogeneous solution. The following applies: 10 mM HEPES buffer (pH 7), 1:1 binding model, error estimate ≤ 20%. How it is done:
(§1) Fluorescence titrations were carried out in aqueous HEPES buffer (10 mM, pH 7, 22 °C) unless stated otherwise. To a solution of the FAR (typically at 10–30 μM) was stepwise added a solution of the analyte (typically up to 2 mM) and the fluorescence spectra were recorded. The normalized emissions at 450 nm (FAR-1) or at 370 nm (FAR-2) were fitted with an equation for a 1 : 1 binding by a least-square fit. The resulting affinity constants are reported in Supplementary Table 1. Representative titration plots are shown in Supplementary Fig. 1.

The nature of data set [2]: Dye displacement membrane assay (liposome-encapsulated host•dye ensembles). The source says:
Supplementary Figure 13 | Graphical representation of membrane assays using dye displacement for signaling. Diffusion of analytes through a lipid membrane is detected by displacement of the dye from (a) a host•dye or (b) a host•dye•quencher complex, leading to reduction or enhancement in emission intensity.
Supplementary Figure 14 | Membrane permeation monitoring of analytes by dye displacement. (a) Time-resolved changes in fluorescence intensity of CB7•BE-loaded liposomes (λexc = 347 nm, λobs = 500 nm) upon addition of the membrane-permeable analyte tyramine and membrane destabilizing peptide melittin.
(b) Evolution of fluorescence intensity after addition of dimethylbenzylamine (DMBA) to CB7•PAL-loaded liposomes (λexc = 347 nm, λobs = 500 nm). (c) Fluorescence response after addition of the […]
tryptophan to liposomes loaded with CB8•MV•2,6-ANS (λexc = 380 nm, λobs = 463 nm). […]
Combing equations S1 and S2, one arrives at Papp = kp∙(r/3) = kobs/canalyte∙cFAR∙(r/3) (equation 1 in main text)
Dye displacement membrane assay
Dye displacement membrane assays rely on selective encapsulation of reporter pairs inside liposomes and the reversible interaction between the receptor and the translocated analyte. To conduct the assay, liposomes containing the chemosensing ensemble composed of a macrocyclic host and a dye are prepared and purified, such that a subsequently added analyte affects the dye fluorescence only if it can enter the vesicle and displaces the dye from the macrocycle. Until now, only the dye displacement has been used as the signaling mechanism for tandem membrane assays,3, 4 whereby the competitive displacement of the dye from such host•dye complexes upon analyte addition restores the fluorescence features of the dye in solution, Supplementary Figures 13 - 14.
Specifically, this signaling mechanism has been mostly employed with macrocyclic host s with cavity space that is capable o f forming 1:1 complex es, e.g., cucurbit[7]uril (CB7) and the dyes berberine (BER) or palmatine (PAL), see Supplementary Figure 13a, or with p-sulfonato calix[4]arene (CX4) and lucigenin.3,4 Expanding the repertoire of chemosensors for tandem membrane assay s, we exploit herein also the ability of a larger macrocyclic host such as cucurbit[8]uril (CB8) to form 1:1:1 ternary complexes,5-7 and utilize here the quencher methyl viologen (MV) in combination with the fluorescent dyes 5-hydroxy tryptophan (5HO-Trp), 2-anilinonaphthalene -6-sulfonic acid (2,6-ANS) or dapoxyl sulfonic acid, sodium salt (DapoxS), Supplementary Figure 13b. Upon addition of an analyte, the fluorescent dye, the quencher or both the fluorescent dye and quencher are displaced from the CB8 cavity, which in each case is reflected by an increase in the emission intensity of the dye (switch -on displacement assay), Supplementary Figures 14- […]
The dye displacement signal strategy has two important disadvantages compared to the preferred fluorescent artificial receptor (FAR) assays:
(i) The dye displacement strategy is limited to strongly binding analytes, i.e., K(analyte) ≥ K(dye), otherwise a large excess concentration of analyte is needed to generate significant

The next data set can be described thus: in vitro. An excerpt: Elementary physical parameters, such as permeability coefficients, can be extracted from the full kinetic FARMA data. This kinetic profile → parameter mapping requires some assumptions to be made in regard to the permeation mechanism. We applied a reported permeation model for liposomes[31] to arrive at permeation rate constants (kp) and apparent permeability coefficients (Papp). The derivation of the mathematical relation (1), linking the fundamental permeability rate constant and permeability coefficient to experimental measurable kobs rate constants, the known total analyte and total FAR concentration, and the experimentally determined liposome radius (r), is shown in the Supplementary Information.1 Papp=kp⋅r/3=kobs/canalyte⋅cFAR⋅r/3 […]
The volume-to-surface correction factor r/3 accounts for the fact that the observed rates depend on the size, i.e., radius r, of the liposomal assembly. […] The initial-rate method can also be applied, see the Supplementary Information. Moreover, kobs/canalyte can be estimated by single-point measurements at selected canalyte concentration.
A solution of 2.5 mg/mL of POPC and 0.33 mg/mL of POPS in chloroform was purged with nitrogen and dried overnight under […] vacuum. […] The resulting FAR-loaded liposomes were separated from non-encapsulated species by size-exclusion chromatography (NAP-25 column), while maintaining the same buffer. The absence of non-encapsulated FAR was confirmed by adding a non-membrane-permeable species such as tryptophan to a fluorescence cuvette containing 25 µL of liposomes diluted in 1 mL HEPES (10 mM) buffer. Complete removal of non-encapsulated FAR is indicated by the absence of a significant fluorescence change upon Trp addition.
In a typical experiment, 20 µL of liposome solution loaded with FAR was diluted in 1 mL HEPES buffer (10 mM, pH 7.0) in a 1 mL quartz cuvette. An emission spectrum was recorded after 10 min of “equilibration time” on a Varian Eclipse spectrofluorometer thermostated at 22 °C with a water bath using λexc = 400 nm for FAR-1, λexc = 310 nm for FAR-2, and λexc = 330 nm for FAR-3. In the time-resolved experiments, the emission intensity at λobs = 450 nm for FAR-1, λobs = 370 nm for FAR-2, and λobs = 370 and 500 nm for FAR-3 (the latter is the emerging excimer band for certain FAR-3•analyte complexes) was recorded with an averaging time of 0.5 s. […] For single-point experiments, a full spectrum was recorded after a fixed time or several time intervals after analyte addition. […] Only FAR-analyte combinations were used for FARMA, for which no significant autofluorescence and competitive light absorption of the analyte occurred.
For each experiment, measurements from 6 injections were accumulated and the average of these traces was used for data analysis.
Calculation of the unimolecular permeation rate constants ( kp) and of the apparent permeability coefficients (Papp).
The passive diffusion (permeation) of small non-charged compounds follows a modified Fick’s law and can be expressed by a first order kinetics.1 Similar to first order chemical reactions, the kinetics curve can therefore be fitted monoexponentially to obtained the observed permeation rates (kobs). In our assay set-up, such an exponential fit is an approximation, since it neglects that a certain fraction of transported analyte is bound to the FAR and cannot exit the liposome. Nevertheless, the fit of the kinetic curves of the […]
approximation is justified.

The test system of the next data set is FAR-1. The data set can be described thus: Fluorescence titration, FAR•analyte complex formation in homogeneous solution. It counts as binding. How it is done: as §1, with “Fig. 1. Note that the high CB8-dye binding affinities correspond to a near quantitative degree of host-dye complexation, i.e., quantitative formation of the FAR, such that the subsequent binding of the analyte can be treated independently.” for “Fig. 1.”

For data set [3] the following is noted: PAMPA; cited from earlier work. Background: The PAMPA barrier holds no transporters, so it reflects passive diffusion.
The subject of the next data set is Caco-2. The following applies: cited from earlier work.
Setting [4] is: monoexponential fit, analyte 40 µM (bulk), FAR-2 ca. 500 µM in the liposome interior, 20% error.
[5] abbreviates: FAR-1, 10 mM HEPES buffer (pH 7), 1:1 binding model, error estimate ≤ 20%.
The mark [6] stands for this setting: dye displacement, CB7•BE-, CB8•MV•5OH-Trp- or CB8•MV•2,6-ANS-loaded liposomes.

Consider `Clc1ccccc1Cl` [1,2-dichlorobenzene], for which, in data set [1], the “Qualitative assessment of membrane permeability” value (“Qualitative assessment” for short) was “+”.
As to `Oc1ccc(O)cc1` [1,4-dihydroxybenzene], the Ka in the data set with FAR-2 is 2.9 10^3 M−1.
On to `O=C(O)C1C2CC3CC(C2)CC1C3` (stereo not shown) [2-adamantyl-carboxylate], for which, in data set [2], the “membrane permeability (in words)” value is listed as “membrane-permeable, albeit at a slower rate”.
As to `Oc1ccc2ccccc2c1` [2-naphthol], in “in vitro”, the “membrane permeability (in words)” value was “permeable”. Further, in data set [1], the “Qualitative assessment” value is reported as “+”.
`N#Cc1ccccc1O` [2CN-phenol, 2-cyanophenol]: the kobs was found to be 10 s–1 in the data set “in vitro” (setting [4]) and 10 in the data set “in vitro” (source data of Fig. 5). Moreover, the “log(kobs)” value in the data set “in vitro” (source data of Fig. 5) is listed as 1. Besides, the Ka in the data set with FAR-2 is given as 5.8 10^3 M−1.
`CCOc1ccc(O)cc1` [4-ethoxyphenol]: the Ka is given as 1.0 10^3 M−1 in the data set on FAR-2 and 1 10^3 M−1 in the data set on FAR-1 (setting [5]).
Consider `COc1ccc(O)cc1` [4-methoxyphenol], for which the Ka in the data set with FAR-2 is reported as 2.4 10^3 M−1.
With `N#Cc1ccc(O)cc1` [4CN-phenol, 4-cyanophenol], in “in vitro” (not told, pH 7), the “kobs” value was 40 and the “log(kobs)” value turned out to be 1.602. Further, in the data set on FAR-2, the Ka is reported as 5.2 10^3 M−1. The “Qualitative assessment” value in data set [1] is given as “+”. The “Papp Literature” value in data set [3] is given as 17 10^−6 cm s^−1.
For `Nc1ccccc1` [Aniline, aniline], the kobs in “in vitro” (setting [4]) amounted to 7.5 s–1; in the data set “in vitro” (source data of Fig. 5), 7.5. The kp in “in vitro” (not told, pH 7) was 9400^f. The “log(kobs)” value in the data set “in vitro” (source data of Fig. 5) was 0.8751. Besides, the Ka was 25 10^3 M−1 with FAR-2 and 33 10^3 M−1 in the data set with FAR-1 (setting [5]). Besides, the “Papp Literature” value in data set [3] is listed as 76 10^−6 cm s^−1.
Broadly, the Papp is the rate of passage across a membrane or cell layer, normalised by area and donor concentration. `CC12CC3CC(C)(C1)CC(N)(C3)C2` [Memantine, 3,5-dimethyladamantan-1-amine, reference compound]: the apparent permeability (Papp) in “in vitro” (not told, pH 7) was 24 ×10⁻⁶ cm/s. The “Papp Literature” value in the data set on Caco-2 is recorded as 43 10^−6 cm s^−1.
With `N[C@@H](Cc1ccccc1)C(=O)O` [Phe, phenylalanine], the “membrane permeability (in words)” value in data set [2] (setting [6]) is on record as “membrane impermeable”. In addition, in the data set on FAR-1 (setting [5]), the Ka is 5 10^3 M−1.
Take `Oc1ccccc1` [Phenol, phenol]: in “in vitro” (not told, pH 7), the Papp is 112 ×10⁻⁶ cm/s, the kobs turned out to be 2.7 s–1, the “log(kobs)” value was 0.4314 and the “time of FARMA signal response (t)” value is on record as below 5 s. Besides, the “Papp Literature” value in data set [3] is recorded as 47. For the same compound, in the data set with FAR-1 (pH 7), the Ka came to 56.
Regarding `CNC(=C[N+](=O)[O-])NCCSCc1ccc(CN(C)C)o1` [Ranitidine, ranitidine, reference compound], the apparent permeability (Papp) at 100 µM in “in vitro” (not told, pH 7) stood at 0.013 ×10⁻⁶ cm/s. For the same compound, the “Papp Literature” value in the data set with Caco-2 (no passive permeation but active transport) was 0.49 10^−6 cm s^−1; in data set [3] it was 0.88 10^−6 cm s^−1. In addition, the Ka with FAR-1 (setting [5]) is 2 10^3 M−1.
As for `NC(=O)C(N)Cc1c[nH]c2ccccc12` (stereo not shown) [TrpNH2, tryptophanamide], the “Papp Literature” value in data set [3] was 2.7 10^−6 cm s^−1. Also, the Ka in the data set with FAR-1 (setting [5]) was 460 10^3 M−1.
`NCCCCCN` [cadaverine]: the “membrane permeability (in words)” value in data set [2] (setting [6]) is on record as “membrane impermeable”.
On to `COc1ccc(B(O)O)cc1` [p-anisylboronic acid], for which, in the data set with FAR-2, the Ka was 4.8 10^3 M−1.
As to `Cc1ccc(C)cc1` [p-xylene, 1,4-dimethylbenzene], in “in vitro” (setting [4]), the kobs came out at 17 s–1. Also, in “in vitro” (source data of Fig. 5), the “kobs” value was 17 and the “log(kobs)” value was 1.23. Besides, in data set [1], the “Qualitative assessment” value is on record as “+”.
Consider `CC(C)NCC(O)COc1cccc2ccccc12` (stereo not shown) [propranolol, reference compound], for which, in data set [2] (setting [6]), the “membrane permeability (in words)” value is reported as “membrane permeable”. The Ka in the data set with FAR-1 (setting [5]) was 3 10^3 M−1.
With `O=C([O-])c1ccccc1.[Na+]` [sodium benzoate], in the data set on FAR-2, the Ka was < 1 10^3 M−1.
For `NCCCNCCCCNCCCN` [spermine], the “membrane permeability (in words)” value in data set [2] (setting [6]) is on record as “membrane impermeable”.
For the compound `NCCc1ccc(O)cc1` [tyramine], the “membrane permeability (in words)” value in the data set “in vitro” (FARMA with FAR-loaded liposomes or GUVs) is recorded as “pass the membrane within several minutes to hours”; in data set [2] (setting [6]), “membrane-permeable”.
